Here are results for 57 compounds from US7868005B2, “Pyrazinyl substituted piperazine-piperidines with CXCR3 antagonist activity” (Schering Corporation, priority 2005, dated 2011).

The experiment deals with T1, human CXCR3 (N-delta 4) (Homo sapiens, UniProt P49682).
T1 construct: CD8 leader (N); Flag; expressed in transfected cells; membranes prepared
T1 sequence (P49682 5-368 limits assumed): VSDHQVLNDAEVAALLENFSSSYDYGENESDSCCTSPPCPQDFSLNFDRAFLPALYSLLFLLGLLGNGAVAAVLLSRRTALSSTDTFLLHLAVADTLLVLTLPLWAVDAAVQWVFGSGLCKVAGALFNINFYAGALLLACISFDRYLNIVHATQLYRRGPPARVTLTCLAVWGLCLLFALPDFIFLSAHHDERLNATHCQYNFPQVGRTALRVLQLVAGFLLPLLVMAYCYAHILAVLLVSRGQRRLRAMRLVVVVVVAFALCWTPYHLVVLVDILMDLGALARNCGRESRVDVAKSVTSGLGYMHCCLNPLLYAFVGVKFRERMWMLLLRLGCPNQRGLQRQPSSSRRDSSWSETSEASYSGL
The experiment in a line: Human CXCR3 (N-delta 4) Scintillation Proximity Assay (SPA), [125I] IP-10 binding to Ba/F3-hCXCR3 membranes.

[1] abbreviates: IC50 rating, Table 1, read-out: IC50.

Read-outs that look alike come from different tables or passages of the source. Where only a bound is given, the exact number is not on record here.

For the compound `CC[C@H]1CN(c2nc(N)c(C(=O)NCCO)nc2Cl)CCN1C1CCN(C(=O)c2ccc(Cl)cc2OCCNC(=O)OC(C)(C)C)CC1` [compound 315], the IC50 (in general, the concentration needed to halve the response being measured) under setting [1] is below 25 nM.

In the case of `CC[C@H]1CN(c2nc(N)c(C(=O)NCCCO)nc2Cl)CCN1C1CCN(Cc2ccc(Cl)cc2)CC1` [compound 227], the IC50 under setting [1] fell in the range of 25 to 100 nM.

As to `CC[C@H]1CN(c2ncc(C(N)=O)nc2C)CCN1C1CCN(Cc2ccc(C(F)(F)F)cc2)CC1` [compound 445], under setting [1], the IC50 was below 25 nM.

For `CC[C@H]1CN(c2nc(N)c(C(=O)NCCO)nc2Cl)CCN1C1CCN(C(=O)c2ccc(Cl)cc2)CC1` [compound 334], the half-maximal inhibitory concentration (IC50) under setting [1] was below 25 nM.

In the case of `CC[C@H]1CN(c2nc(N)c(C(=O)NCCO)nc2Cl)CCN1C1CCN(Cc2ccc(Cl)cc2OCCO)CC1` [compound 124], the IC50 under setting [1] was below 25 nM.

For `CC[C@H]1CN(c2ncc(C(=O)NC3CC3)nc2C)CCN1C1CCN([C@H](CO)c2ccc(Cl)cc2)CC1` [compound 470], the IC50 under setting [1] was below 25 nM.

Regarding `CC[C@H]1CN(c2ncc(C(=O)NC3CC3)nc2C)CCN1C1CCN(Cc2ccc(Cl)cc2)CC1` [Formula 10], under “human, read-out: human IC50”, the IC50 was below 1 nM.

Take `CC[C@H]1CN(c2nc(N)c(C(=O)NCCO)nc2Cl)CCN1C1CCN(Cc2ccc(-c3csnn3)cc2)CC1` [compound 154]: under setting [1], the IC50 was below 25 nM.

Take `C[C@@H]1CN(C2CCN(Cc3ccc(Cl)cc3F)CC2)[C@@H](C)CN1c1cnc(C(N)=O)cn1` [compound 289]: under setting [1], the IC50 is above 100 nM.

With `CC[C@H]1CN(c2nc(N)c(C(=O)NC)nc2Cl)CCN1C1CCN([C@@H](C(=O)O)c2ccc(Cl)cc2)CC1` [compound 70], the IC50 under setting [1] is below 25 nM.

Regarding `CC[C@H]1CN(c2ncc(C(=O)NC3CC3)nc2C)CCN1C1CCN([C@@H](CO)c2ccc(Cl)cc2)CC1` [compound 469], under setting [1], the IC50 is below 25 nM.

As for `CC[C@H]1CN(c2nc(N)c(C(=O)NC3CC3)nc2Cl)CCN1C1CCN(Cc2ccc(Cl)cc2)CC1O` (stereo partly drawn) [compound 98], under setting [1], the IC50 was above 100 nM.

Turning to `CC[C@H]1CN(c2nc(N)c(C(=O)NCCN)nc2Cl)CCN1C1CCN(Cc2ccc(Cl)cc2C#N)CC1` [compound 234], the IC50 under setting [1] is 25 to 100 nM.

Turning to `CC[C@H]1CN(c2nc(N)c(C(=O)NCCO)nc2Cl)CCN1C1CCN([C@H](C(=O)OC)c2ccc(F)c(F)c2)CC1` [compound 198], under setting [1], the IC50 was above 100 nM.

Turning to `CC[C@H]1CN(c2ncc(C(=O)NC3CC3)nc2C)CCN1C1CCN(Cc2ccc(F)c(F)c2)CC1` [compound 450], the IC50 under setting [1] was below 25 nM.

`CC[C@H]1CN(c2nc(N)c(C(=O)NCCS(C)(=O)=O)nc2Cl)CCN1C1CCN(Cc2ccc(Cl)cc2)CC1` [compound 100]: the IC50 under setting [1] was below 25 nM.

Turning to `CC[C@H]1CN(c2ncc(C(=O)NC)nc2NC)CCN1C1CCN(C(=O)c2ccc(Cl)cc2)CC1` [compound 384], under setting [1], the IC50 was above 100 nM.

Consider `CC[C@H]1CN(c2ncc(C(N)=O)nc2Cl)CCN1C1CCN(Cc2ccc(Cl)cc2[C@H](O)C(N)=O)CC1` [compound 285], for which the IC50 under setting [1] is below 25 nM.

For the compound `CC[C@H]1CN(c2nc(N)c(C(=O)NC3CCOC3=O)nc2Cl)CCN1C1CCN(Cc2ccc(Cl)cc2)CC1` (stereo partly drawn) [compound 277], under setting [1], the IC50 was below 25 nM.

Regarding `CC[C@H]1CN(c2nc(N)c(C(=O)NCCO)nc2Cl)CCN1C1CCN([C@@H](C(=O)OC)c2ccc(F)c(F)c2)CC1` [compound 185], the IC50 under setting [1] fell in the range of 25 to 100 nM.

As to `CC[C@H]1CN(c2nc(N)c(C(=O)NCCNS(C)(=O)=O)nc2Cl)CCN1C1CCN(Cc2ccc(C#N)cc2)CC1` [compound 247], under setting [1], the IC50 is 25 to 100 nM.

Turning to `CCOC(=O)/N=C(\N)c1cc(Cl)ccc1CN1CCC(N2CCN(c3nc(N)c(C(=O)NCCNS(C)(=O)=O)nc3Cl)C[C@@H]2CC)CC1` [compound 246], under setting [1], the IC50 was below 25 nM.

Regarding `CC[C@H]1CN(c2ncc(C(=O)NC3CC3)nc2C)CCN1C1CCN(Cc2ccc(Cl)c(OCCS(C)(=O)=O)c2)CC1` [compound 492], the IC50 under setting [1] was below 25 nM.

In the case of `CC[C@H]1CN(c2nc(N)c(C(N)=O)nc2Cl)CCN1C1CCN(Cc2ccc(Cl)cc2CC(=O)NCCNS(C)(=O)=O)CC1` [compound 46], the IC50 under setting [1] was above 100 nM.

On to `CC[C@H]1CN(c2nc(N)c(C(=O)NCCO)nc2Cl)CCN1C1CCN(Cc2cc(F)c(Cl)cc2OCCNS(C)(=O)=O)CC1` [compound 165], for which the IC50 under setting [1] was below 25 nM.

On to `CC[C@H]1CN(c2nc(N)c(C(=O)NCCO)nc2Cl)CCN1C1CCN([C@H](C(=O)OC)c2ccc(C#N)cc2)CC1` [compound 200], for which the IC50 under setting [1] is above 100 nM.

`CC[C@H]1CN(c2nc(N)c(C(=O)OC)nc2Cl)CCN1C1(C)CCN(Cc2ccc(Cl)cc2)CC1` [compound 310]: the IC50 under setting [1] is above 100 nM.

For `CC[C@H]1CN(c2nc(N)c(C(=O)NC3CC3)nc2Cl)CCN1C1CCN(Cc2ccc(Cl)cc2C(N)=O)CC1` [compound 82], under setting [1], the IC50 was below 25 nM.

Regarding `CC[C@H]1CN(c2nc(N)c(C(=O)NC[C@@H](C)O)nc2Cl)CCN1C1CCN(Cc2ccc(Cl)cc2CC#N)CC1` [compound 220], the IC50 under setting [1] is below 25 nM.

In the case of `CC[C@H]1CN(c2nc(N)c(C(=O)NCCO)nc2Cl)CCN1C1CCN(Cc2ccc(OC)c(F)c2)CC1` [compound 397], the IC50 under setting [1] was below 25 nM.

Regarding `CC[C@H]1CN(c2nc(N)c(C(=O)N3CCN(S(C)(=O)=O)CC3)nc2Cl)CCN1C1CCN(Cc2ccc(Cl)cc2)CC1` [compound 313], under setting [1], the IC50 was above 100 nM.

On to `CC[C@H]1CN(c2nc(N)c(C(=O)O)nc2Cl)CCN1C1CCN(Cc2ccc(Cl)cc2)CC1` [compound 293], for which the IC50 under setting [1] is above 100 nM.

For the compound `CCNC(=O)c1nc(Cl)c(N2CCN(C3CCN(C(=O)c4ccc(Cl)cc4)CC3)[C@@H](CC)C2)nc1N` [compound 332], under setting [1], the IC50 is below 25 nM.

Take `CC[C@H]1CN(c2nc(N)c(C(=O)NCCN/C(N)=N/C#N)nc2Cl)CCN1C1CCN(C(=O)c2ccc(Cl)cc2)CC1` [compound 355]: the IC50 under setting [1] is above 100 nM.

For the compound `CC[C@H]1CN(c2nc(N)c(C(=O)NC)nc2Cl)CCN1C1CCN(C(=O)c2ccc(Br)c(F)c2)CC1` [compound 333], the IC50 under setting [1] is below 25 nM.

On to `CC[C@H]1CN(c2ncc(C(=O)NC3CC3)nc2C)CCN1C1CCN(C(=O)c2ccc(C)c(F)c2)CC1` [compound 459], for which the IC50 under setting [1] is below 25 nM.

Turning to `CC[C@H]1CN(c2nc(N)c(C(=O)NC)nc2Cl)CCN1C1CCN(C(=O)c2ccc(Br)cc2)CC1` [compound 331], under setting [1], the IC50 is below 25 nM.

Take `CC[C@H]1CN(c2nc(N)c(C(N)=O)nc2Cl)CCN1C1CCN(Cc2ccc(Cl)cc2CC(=O)N2CC[C@@H](O)C2)CC1` [compound 51]: the IC50 under setting [1] is above 100 nM.

For the compound `CC[C@H]1CN(c2nc(N)c(C(=O)NCCO[Si](C(C)C)(C(C)C)C(C)C)nc2Cl)CCN1C1CCN(Cc2ccc(F)c(F)c2N2CC[C@H](O)C2)CC1` [compound 374], the IC50 under setting [1] is above 100 nM.

Turning to `CC[C@H]1CN(c2nc(N)c(C(N)=O)nc2Cl)CCN1C1CCN(Cc2ccc(F)c(F)c2N2CCC[C@H]2C(C)(C)O)CC1` [compound 60], the IC50 under setting [1] was above 100 nM.

`CC[C@H]1CN(c2nc(N)c(C(N)=O)nc2Cl)CCN1C1CCN(Cc2ccc(Cl)cc2C2OC(=O)NC2=O)CC1` (stereo partly drawn) [compound 407]: the IC50 under setting [1] was above 100 nM.

As for `CC[C@H]1CN(c2nc(N)c(C(=O)NC3CC3)nc2Cl)CCN1C1CCN(C(=O)c2ccc(Cl)cc2O)CC1` [compound 314], the concentration for half-maximal inhibition (IC50) under setting [1] was below 25 nM.

As for `CC[C@H]1CN(c2nc(N)c(C(N)=O)nc2Cl)CCN1C1CCN(C(=O)c2ccc(Cl)cc2CN2Cc3ccccc3C2)CC1` [compound 325], the IC50 under setting [1] is above 100 nM.

With `CC[C@H]1CN(c2nc(N)c(C(=O)NCCO)nc2Cl)CCN1C1CCN([C@@H](CO)c2ccc(Cl)cc2)CC1` [compound 109], under setting [1], the IC50 is below 25 nM.

Turning to `CC[C@H]1CN(c2nc(N)c(C(N)=O)nc2Cl)CCN1C1CCN([C@@H](CO)c2ccc(Cl)cc2)CC1` [compound 5], the IC50 under setting [1] is below 25 nM.

As to `CC[C@H]1CN(c2ncc(C(=O)NC3CC3)nc2C)CCN1C1CCN(C(=O)c2ccc(Cl)cc2)CC1` [compound 460], under setting [1], the IC50 was below 25 nM.

Consider `CC[C@H]1CN(c2nc(N)c(C(=O)NCCO)nc2Cl)CCN1C1CCN([C@@H](C(=O)O)c2ccc(Cl)cc2)CC1` [compound 177], for which the IC50 under setting [1] lay within 25 to 100 nM.

Take `CC[C@H]1CN(c2nc(N)c(C(N)=O)nc2Cl)CCN1C1CCN(Cc2ccc(Cl)cc2CCO)CC1` [compound 4]: the IC50 under setting [1] was below 25 nM.

In the case of `CC[C@H]1CN(c2nc(N)c(C(=O)NCC(=O)O)nc2Cl)CCN1C1CCN(Cc2ccc(Cl)cc2)CC1` [compound 105], the IC50 under setting [1] is above 100 nM.

With `CC[C@H]1CN(c2nc(N)c(C(=O)NCC(C)O)nc2Cl)CCN1C1CCN(Cc2ccc(Cl)cc2)CC1` (stereo partly drawn) [compound 217], the IC50 under setting [1] was below 25 nM.

As to `CC[C@H]1CN(c2nc(N)c(C(=O)NCCO)nc2Cl)CCN1C1CCN(C(=O)c2ccc(F)c(F)c2NCc2ccccc2)CC1` [compound 360], the IC50 under setting [1] is above 100 nM.

On to `CC[C@H]1CN(c2ncc(C(N)=O)nc2Cl)CCN1C1CCN([C@@H](CO)c2ccc(Cl)cc2)CC1` [compound 457], for which the IC50 under setting [1] was below 25 nM.

Turning to `CC[C@H]1CN(c2nc(N)c(C(N)=O)nc2Cl)CCN1C1CCN(C(=O)c2ccc(Cl)cc2)CC1` [compound 349], the IC50 under setting [1] lay in the range of 25 to 100 nM.

Turning to `CC[C@H]1CN(c2nc(N)c(C(=O)NCCNS(N)(=O)=O)nc2Cl)CCN1C1CCN([C@@H](CO)c2ccc(Cl)cc2)CC1` [compound 257], the IC50 under setting [1] is below 25 nM.

With `CC[C@H]1CN(c2ncc(C(=O)NC3=NCCN3)nc2Cl)CCN1C1CCN(C(=O)c2ccc(Cl)cc2)CC1` [compound 424], the IC50 under setting [1] is above 100 nM.

For `CC[C@H]1CN(c2nc(N)c(C(=O)NC[C@@H](C)O)nc2Cl)CCN1C1CCN(Cc2ccc(Cl)cc2[C@@H](O)C(N)=O)CC1` [compound 222], the IC50 under setting [1] was below 25 nM.

On to `CC[C@H]1CN(c2nc(N)c(C(=O)NC(=N)NC)nc2Cl)CCN1C1CCN(Cc2ccc(OC(F)(F)F)cc2)CC1` [compound 391], for which, under setting [1], the IC50 is below 25 nM.
